Read-outs that look alike come from different tables or passages of the source. Numbered stars: 1 amine (or outer) side, 2 acyl side, 3 side chain; on linkers, the order of the positions; unused ones are H or OH. Square brackets hold non-standard residues; d marks the D form. Side chains are listed from the residue outwards. * marks the point of attachment. C20 diacid = O=C(O)CCCCCCCCCCCCCCCCCCC(=O)*; C18 diacid = O=C(O)CCCCCCCCCCCCCCCCC(=O)*; γGlu = O=C(O)[C@H](CCC(=O)[*:2])N[*:1]; AEEA = NCCOCCOCC(=O)O; Aib = CC(C)(N)C(=O)O
Columns and labels:
Type in all cases: cell-based
[1] = target: T1, human GLP-1 receptor (hGLP-1R) (Homo sapiens, UniProt P43220); experiment: GLP-1 receptor assay, method A (CRE-luciferase reporter, BHK cells)
T1 construct: expressed in transfected cells
T1 sequence (P43220 24-463): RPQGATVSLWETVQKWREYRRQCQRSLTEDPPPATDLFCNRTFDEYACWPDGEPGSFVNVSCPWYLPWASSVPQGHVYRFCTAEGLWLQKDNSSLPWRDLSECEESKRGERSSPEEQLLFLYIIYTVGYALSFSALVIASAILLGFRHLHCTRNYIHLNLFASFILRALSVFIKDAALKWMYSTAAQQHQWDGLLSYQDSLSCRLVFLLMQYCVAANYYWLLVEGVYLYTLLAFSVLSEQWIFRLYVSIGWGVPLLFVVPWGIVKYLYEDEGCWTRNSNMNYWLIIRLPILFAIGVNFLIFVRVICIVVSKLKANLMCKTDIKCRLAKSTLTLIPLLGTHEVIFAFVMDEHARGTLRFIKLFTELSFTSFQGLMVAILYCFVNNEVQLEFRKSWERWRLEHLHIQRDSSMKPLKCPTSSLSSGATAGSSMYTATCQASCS
Method: (§1) To assess how the activation of the receptors is potentially influenced by the presence of human serum albumin (HSA), the in vitro assays were performed in the absence of HSA and presence of 1% (w/v) HSA.
Cells at approximately 80-90% confluence were washed once in PBS (Gibco 14190-094) and loosened from the cell flasks with Versene (Gibco, 15040-033). […] Cells were aliquoted and stored at −180° C. until use.
(§2) The assay buffer consisted of DMEM without phenol red (Gibco, 11880-028) supplemented with 1× GlutaMAX (Gibco, 35050-038), 10 mM HEPES (Gibco, 15630-056), 1% (w/v) ovalbumin (Sigma, A5503) and 0.1% (v/v) Pluronic F-68 (Gibco, 24040-032) either with HSA or without HSA (Sigma, A9511).
Frozen stocks of hGLP-1R BHK CRE-Luc cells were thawed in a 37° C. water bath, washed once in PBS (Gibco 14190-094) and diluted to 1.5×10^6 (1.5E+6) cells/mL in assay buffer with or without 2% (w/v) HSA (Sigma, A9511). […] The assay plates were incubated for 3 hours at 37° C. in 5% CO2, left at room temperature for 5 minutes after which 100 μL steadylite Plus™ (PerkinElmer/Revvity, 6066759) was added to each well. Plates were sealed and incubated at room temperature with gentle shaking for 30 minutes while protected from light. Luminescence was detected on a luminescence plate reader e.g., a Synergy 2 (BioTek).

[2] = target: T2, human GIP receptor (hGIPR) (Homo sapiens, UniProt P48546); experiment: GIP receptor assay, method A (CRE-luciferase reporter, BHK cells)
T2 construct: expressed in transfected cells
T2 sequence (P48546 22-466): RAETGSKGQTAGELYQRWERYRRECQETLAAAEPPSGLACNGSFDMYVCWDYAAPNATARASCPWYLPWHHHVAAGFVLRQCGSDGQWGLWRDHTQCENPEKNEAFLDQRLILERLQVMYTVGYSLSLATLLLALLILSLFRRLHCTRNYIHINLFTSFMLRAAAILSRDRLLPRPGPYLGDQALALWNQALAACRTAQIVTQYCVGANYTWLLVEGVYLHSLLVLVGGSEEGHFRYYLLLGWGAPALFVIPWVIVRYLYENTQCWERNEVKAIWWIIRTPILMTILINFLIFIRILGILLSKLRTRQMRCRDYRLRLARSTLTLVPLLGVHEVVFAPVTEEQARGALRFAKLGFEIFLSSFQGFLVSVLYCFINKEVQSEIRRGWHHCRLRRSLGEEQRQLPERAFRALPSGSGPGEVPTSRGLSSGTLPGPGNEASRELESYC
Method: To assess how the activation of the receptors is potentially influenced by the presence of human serum albumin (HSA), the in vitro assays were performed in the absence of HSA and presence of 1% (w/v) HSA. Unless stated otherwise the reference to the “GIP receptor assay as described in Example 4” throughout the specification shall refer to the described herein assay procedure method A (hGIPR assay) in the absence of HSA.
Activation of the human GIP receptor leads to increased intra-cellular concentrations of cyclic AMP (cAMP) and the consequent transcription activation from promoters containing multiple copies of the cAMP response element (CRE). It is thus possible to measure GIP receptor activity using a CRE-luciferase reporter gene introduced into Baby Hamster Kidney (BHK) cells co-expressing the human GIP receptor.
Cells at about 80-90% confluency were washed once with PBS (Gibco 14190-094) and detached from the cell flasks with Versene (Gibco, 15040-066). After centrifugation, the cells were counted, resuspended and diluted to approximately 1.5-3.0×10^6 (1.5E+6 to 3.0E+6) cells/mL in Recovery Cell Culture Freezing Medium (Gibco, 12648-010) and stored at −180° C. in suitable aliquots until use.
as §2
On the day before the assay hGIPR BHK Cre-Luc cells were thawed and plated out in 96 well Culture Plates (PerkinElmer/Revvity, 6005680) at 5.0×10^3 (5.0E+3) cells/well in growth medium as described above. The plates were then incubated for 21-23 hours at 37° C. with 5% CO2. On the day of the assay GLP-1-/GIP-/amylin-receptor tri-agonists or reference compounds were diluted in assay buffer using a 7-point, 10-fold titration plus a blank (absence of compound). Each compound was diluted and tested in duplicates in each experiment. In the plates containing the cells the growth medium was removed, and cells were washed twice with 100 μL PBS (Gibco 14190-094). 50 μL of the test compound dilutions were added to the plates containing cells preceded by 50 μL assay buffer with or without 2% (w/v) HSA (Sigma, A9511). The cell plates were incubated for 3 hours in a 5% CO2 incubator at 37° C. The plates were then transferred to room temperature followed by addition of 100 μL steadylite Plus™ (PerkinElmer/Revvity, 6066759). The plates were sealed and shaken for 30 minutes at room temperature while protected from light. Finally, luminescence (as an indicator of receptor activation) was measured on a Mithras reader (Berthold Technologies, DE). The EC50-values [pM] were calculated by non-linear curve fitting applying a four-parameter logistic model (Hill slope=“shared value for all datasets”) using GraphPad Prism (GraphPad Software, Boston, MA, USA).

[3] = target: T3, human amylin receptor (hAMYR3) (Homo sapiens, UniProt O60896+P30988); experiment: Amylin receptor assay, method A (CRE-luciferase reporter, BHK cells)
T3 construct: host or cells: BHK cells (Hollex-1 line expressing hCTR(a) and CRE-Luc), further transfected with human RAMP3
T3 sequence (P30988 25-474): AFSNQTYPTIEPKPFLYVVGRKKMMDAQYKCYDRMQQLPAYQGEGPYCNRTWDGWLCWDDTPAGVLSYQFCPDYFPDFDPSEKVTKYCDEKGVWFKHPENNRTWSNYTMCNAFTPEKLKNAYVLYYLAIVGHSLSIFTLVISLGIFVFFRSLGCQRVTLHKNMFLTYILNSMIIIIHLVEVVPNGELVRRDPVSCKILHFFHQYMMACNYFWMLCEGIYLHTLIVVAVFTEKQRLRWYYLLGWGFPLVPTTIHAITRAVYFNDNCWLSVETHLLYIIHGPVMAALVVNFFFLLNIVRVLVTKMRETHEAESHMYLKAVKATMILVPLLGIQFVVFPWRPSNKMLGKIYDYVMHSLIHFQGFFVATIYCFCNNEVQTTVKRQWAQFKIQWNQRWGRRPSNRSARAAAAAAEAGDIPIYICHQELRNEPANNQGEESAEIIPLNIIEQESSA
T3 sequence (O60896 24-148): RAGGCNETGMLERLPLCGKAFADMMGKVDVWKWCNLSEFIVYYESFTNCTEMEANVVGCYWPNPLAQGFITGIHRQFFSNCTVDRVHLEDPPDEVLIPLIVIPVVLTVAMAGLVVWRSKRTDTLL
Method: as §1
It is thus possible to measure hAMYR3 activity using a CRE-luciferase reporter gene introduced into Baby Hamster Kidney (BHK) cells co-expressing the hAMYR3.
The cell line was further transfected with human receptor modifying protein 3 (RAMP3) using standard methods.
After centrifugation, the cell pellet was resuspended and diluted to approximately 2.5-4.0×10^6 (2.5E+6 to 4.0E+6) cells/mL in Recovery™ Cell Culture Freezing Medium (Gibco, 12648-010). Cells were aliquoted and stored at −180° C. until use.
as §2, with “15630-056) and” for “15630-056),”, “either with or without” for “and”, “24040-032) and” for “24040-032)”, “with” for “with HSA”
The plate was incubated over night at 37° C. in 5% CO2. […] Luminescence was detected on a luminescence plate reader e.g., a Synergy 2 (BioTek).

[4] = hGLP-1R Potency, 1% HSA, EC50, method A, in the presence of 1% HSA
[5] = hGLP-1R Potency, no HSA, EC50, method A, absence of HSA
[6] = hGIPR Potency, 1% HSA, EC50, method A, in the presence of 1% HSA
[7] = hGIPR Potency, no HSA, EC50, method A, absence of HSA
[8] = hAMYR3 Potency, 1% HSA, EC50, method A, in the presence of 1% HSA
[9] = hAMYR3 Potency, no HSA, EC50, method A, absence of HSA
[10] = method A, absence of HSA, read-out: hGLP-1R Potency, no HSA, EC50
[11] = method A, absence of HSA, read-out: hGIPR Potency, no HSA, EC50
[12] = method A, absence of HSA, read-out: hAMYR3 Potency, no HSA, EC50

Substance	EC50 [1, 4] [pM]	EC50 [1, 5] [pM]	EC50 [2, 6] [pM]	EC50 [2, 7] [pM]	EC50 [3, 8] [pM]	EC50 [3, 9] [pM]	EC50 [1, 10] [pM]	EC50 [2, 11] [pM]	EC50 [3, 12] [pM]
H[Aib]HGTFTSDYSILLEEQAAREFIEWLLAGGPSK([AEEA-AEEA-γGlu-C18 diacid])GEASQLSTAALGRLSAELHRLADLPRTETGSGSP-NH2 [Compound 43]	41.5	4.31	186	4.38	56.5	3.13			
H[Aib]HGTFTSDYSILLEEQAAREFIEWLLAGGPSK([AEEA-AEEA-γGlu-C18 diacid])GEASQLSTAALGRLSAELHHLATLPRTETGSGSP-NH2 [Compound 66]							5.25	2.39	2.32
H[Aib]HGTFTSDYSILLEEQAAREFIEWLLAGGPSK([γGlu-C18 diacid])GAPPPSGGGEASHLSTAQTARLSAELHRLADLPRTETGSGSP-NH2 [Compound 112]	336	4.37	321	2.42	269	3.65			
Y[Aib]EGTFTSDYSILLEEQAAREFIEWLLAGGPSSGAGQAPGQAPGASHLSTAQTARLSAELHK([AEEA-AEEA-γGlu-C18 diacid])LATLPRTETGSGSP-NH2 [Compound 113]	57.5		8.96		136		14.4	2.02	2.53
Y[Aib]EGTFTSDYSILLEEQAAREFIEWLLAGGPSGGEASHLSTAQTQRLSAELHK([AEEA-AEEA-γGlu-C18 diacid])LATLPRTETGSGSP-NH2 [Compound 74]	141		18.7		134		29.8	2.51	2.73
Y[Aib]EGTFTSDYSILLEEQAAREFIEWLLAGGPSK([AEEA-AEEA-γGlu-C18 diacid])GEASHLSTAQTQRLSAELHELATLPRTETGSGSP-NH2 [Compound 34]							21.7	1.7	6.81
Y[Aib]EGTFTSDYSILLEEQAAREFIEWLLAGGPSK([AEEA-AEEA-γGlu-C18 diacid])GAPPPSGGGGASELSTAALGRLSAELHRLATLPRTETGSGSP-NH2 [Compound 13]							37.9	2.4	2.26
Y[Aib]EGTFTSDYSILLEEQAAREFIEWLLAGGPSK([AEEA-AEEA-γGlu-C18 diacid])GAPPEASELSTAALGRLSAELHELATLPRTETGSGSP-NH2 [Compound 33]							32.1	3.11	10.3
Y[Aib]EGTFTSDYSILLEEQAAREFIEWLLAGGPSK([AEEA-AEEA-γGlu-C18 diacid])GALAQTLAQTLASELSTAALGRLSAELHELATLPRTETGSGSP-NH2 [Compound 21]							41.2	8.63	12
H[Aib]HGTFTSDYSILLEEQAAREFIEWLLAGGPSK([AEEA-AEEA-γGlu-C18 diacid])GALAQTLGTNEASHLSTAQTQRLSAELHELATLPRTETGSGSP-NH2 [Compound 45]	112		132		62.4		4.78	2.63	4.69
Y[Aib]EGTFTSDYSILLEEQAAREFIEWLLAGGPSK([AEEA-AEEA-γGlu-C18 diacid])GGQEPGQEPGEASHLSTAQTQRLSAELHELATLPRTETGSGSP-NH2 [Compound 39]	1930		352		140		23.7	1.62	5.75
H[Aib]HGTFTSDYSILLEEQAAREFIEWLLAGGPSSGAGQAPGQAPGASHLSTAQTARLSAELHK([AEEA-AEEA-γGlu-C18 diacid])LATLPRTETGSGSP-NH2 [Compound 103]	33.1		13.3		73.6		5.24	3.14	2.42
H[Aib]HGTFTSDYSILLEEQAAREFIEWLLAGGPSK([AEEA-AEEA-γGlu-C18 diacid])GALAQTLGTNEASELSTAALGRLSAELHRLATLPRTETGSGSP-NH2 [Compound 44]							3.68	6.3	3.8
Y[Aib]EGTFTSDYSILLEEQAAREFIEWLLAGGPSSGALQAPGQAPLASHLSTAQTARLSAELHK([AEEA-AEEA-γGlu-C18 diacid])LATLPRTETGSGSP-NH2 [Compound 105]	48.9		12.5		113		12.6	3.08	2.88
H[Aib]HGTFTSDYSILLEEQAAREFIEWLLAGGPSSGEASHLSTAALGRLSAELHK([AEEA-AEEA-γGlu-C18 diacid])LATLPRTETGSGSP-NH2 [Compound 88]	48.8		40.4		102		4.12	5.68	3.7
H[Aib]HGTFTSDYSILLEEQAAREFIEWLLAGGPSSGAGQAPGQAPGASHLSTAQTARLSAELHK([AEEA-AEEA-γGlu-C20 diacid])LATLPRTETGSGSP-NH2 [Compound 104]	19.1		17.3		293		4.16	3.57	1.49
Y[Aib]EGTFTSDYSILLEEQAAREFIEWLLAGGPSK([γGlu-C20 diacid])GAPPPSGGGEASELSTAALGRLSAELHRLADLPRTETGSGSP-NH2 [Compound 41]		40.8		5.02		6.72			
